Biological target: T1, GSK-3β (amino acids 1-420) (Homo sapiens, UniProt P49841)
T1 construct: hexa-histidine tag with thrombin cleavage site (N); made in house
Test: Ki determination for the inhibition of GSK-3 (standard coupled enzyme system)
Type: biochemical
Conditions: 20 μM ATP, 300 μM peptide, 20 nM GSK-3β, 30° C.; read-out: Ki (GSK-3 inhibitory activity)
Experimental: Reactions were carried out in a solution containing 100 mM HEPES (pH 7.5), 10 mM MgCl2, 25 mM NaCl, 300 μM NADH, 1 mM DTT and 1.5% DMSO. […] Reactions were carried out at 30° C. and 20 nM GSK-3β. Final concentrations of the components of the coupled enzyme system were 2.5 mM phosphoenolpyruvate, 300 μM NADH, 30 μg/ml pyruvate kinase and 10 μg/ml lactate dehydrogenase.
An assay stock buffer solution was prepared containing all of the reagents listed above with the exception of ATP and the test compound of interest. The assay stock buffer solution (175 μl) was incubated in a 96 well plate with 5 μl of the test compound of interest at final concentrations spanning 0.002 μM to 30 μM at 30° C. for 10 min. […] The reaction was initiated by the addition of 20 μl of ATP (final concentration 20 μM). Reaction rates were obtained using a Molecular Devices Spectramax plate reader (Sunnyvale, Calif.) over 10 min at 30° C. The Ki values were determined from the rate data as a function of inhibitor concentration.

T1 sequence (P49841 whole entry, the tested form may be a part): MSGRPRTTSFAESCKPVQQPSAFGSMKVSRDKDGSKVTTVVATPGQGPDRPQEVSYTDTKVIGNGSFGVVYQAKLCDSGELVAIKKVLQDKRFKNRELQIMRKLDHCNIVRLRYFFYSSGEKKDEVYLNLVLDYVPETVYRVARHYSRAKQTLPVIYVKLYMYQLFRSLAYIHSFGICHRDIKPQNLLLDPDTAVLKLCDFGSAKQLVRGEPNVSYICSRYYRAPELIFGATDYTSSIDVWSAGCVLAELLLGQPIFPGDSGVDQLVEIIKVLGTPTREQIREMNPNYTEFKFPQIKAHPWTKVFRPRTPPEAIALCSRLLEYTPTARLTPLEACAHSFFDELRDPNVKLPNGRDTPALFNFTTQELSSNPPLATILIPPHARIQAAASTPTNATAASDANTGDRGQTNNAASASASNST

Ki [nM]	SMILES
> 10000	Nc1n[nH]c2nnc(-c3ccccc3)c(-c3ccc(Cl)cc3)c12 [Compound 2, 3-Amino-4(4-chlorophenyl)-5-phenyl-1H-pyrazolo[3,4-c]pyridazine]
100 to 10000	Nc1n[nH]c2nnc(-c3ccc(F)cc3)c(-c3ccc(F)cc3)c12 [Compound 3, 3-Amino-4,5-bis(4-fluorophenyl)-1H-pyrazolo[3,4-c]pyridazine]
> 10000	Nc1n[nH]c2nnc(-c3ccc(F)cc3)c(-c3ccccc3)c12 [Compound 4, 3-Amino-4-phenyl-5-(4-fluorophenyl)-1H-pyrazolo[3,4-c]pyridazine]
< 100	Nc1n[nH]c2nnc(-c3ccccc3)c(-c3ccc(F)cc3)c12 [Compound 5, 3-Amino-4-(1-fluorophenyl)-5-phenyl-1H-pyrazolo[3,4-c]pyridazine]
< 100	Nc1n[nH]c2nnc(-c3ccccc3)c(-c3cccc(F)c3)c12 [Compound 6, 3-Amino-4(3-fluorophenyl)-5-phenyl-1H-pyrazolo[3,4-c]pyridazine]
> 10000	Nc1n[nH]c2nnc(-c3ccncc3)c(-c3ccccc3)c12 [Compound 7, 3-Amino-4-phenyl-5-(4-pyridyl)-1H-pyrazolo[3,4-c]pyridazine]
< 100	Nc1n[nH]c2nnc(-c3cccc(F)c3)c(-c3ccccc3)c12 [Compound 8, 3-Amino-4-phenyl-5-(3-fluorophenyl)-1H-pyrazolo[3,4-c]pyridazine]
100 to 10000	CC(=O)Nc1n[nH]c2nnc(-c3ccccc3)c(-c3ccccc3)c12 [Compound 9, N-(4,5-Diphenyl-1H-pyrazolo[3,4-c]pyridazin-3-yl)-acetamide]
100 to 10000	O=C(Nc1n[nH]c2nnc(-c3ccccc3)c(-c3ccccc3)c12)c1ccccc1 [Compound 10, N-(4,5-Diphenyl-1H-pyrazolo[3,4-c]pyridazin-3-yl)-benzamide]
< 100	Cc1ccc(-c2nnc3[nH]nc(N)c3c2-c2ccccc2)cc1 [Compound 11, 3-Amino-4-phenyl-5-(4-methyl-phenyl)-1H-pyrazolo[3,4-c]pyridazine]
100 to 10000	Cc1ccccc1-c1nnc2[nH]nc(N)c2c1-c1ccccc1 [Compound 12, 3-Amino-4-phenyl-5-(2-methyl-phenyl)-1H-pyrazolo[3,4-c]pyridazine]
100 to 10000	Cc1cccc(-c2nnc3[nH]nc(N)c3c2-c2ccccc2)c1 [Compound 13, 3-Amino-4-phenyl-5-(3-methyl-phenyl)-1H-pyrazolo[3,4-c]pyridazine]
< 100	Nc1n[nH]c2nnc(-c3ccccc3Cl)c(-c3ccccc3)c12 [Compound 14, 3-Amino-4-phenyl-5-(2-chloro-phenyl)-1H-pyrazolo[3,4-c]pyridazine]
< 100	Nc1n[nH]c2nnc(-c3ccccc3F)c(-c3ccccc3)c12 [Compound 15, 3-Amino-4-phenyl-5-(2-fluorophenyl)-1H-pyrazolo[3,4-c]pyridazine]
100 to 10000	Nc1n[nH]c2nnc(-c3ccc(Cl)cc3)c(-c3ccccc3)c12 [Compound 16, 3-Amino-4-phenyl-5-(4-chloro-phenyl)-1H-pyrazolo[3,4-c]pyridazine]
100 to 10000	Nc1n[nH]c2nncc(-c3ccccc3)c12 [Compound 32, 4-Phenyl-1H-pyrazolo[3,4-c]pyridazin-3-ylamine]
